# Tests used:
# [1] = molecular target: T1, S-layer protein SpaA (SpaASLH) (Paenibacillus alvei, UniProt C1JZ07); assay: co-crystal structure (no binding detected by ITC)
# T1 construct: SLH domain trimer, amino acids 21–193, Ser-Gly-Ser linker and C-terminal His6-tag
# T1 sequence (C1JZ07 21-193): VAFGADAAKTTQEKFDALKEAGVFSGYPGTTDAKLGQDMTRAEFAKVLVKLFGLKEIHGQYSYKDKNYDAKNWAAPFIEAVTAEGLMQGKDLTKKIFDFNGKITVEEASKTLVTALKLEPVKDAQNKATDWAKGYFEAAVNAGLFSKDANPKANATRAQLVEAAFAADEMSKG
# [2] = molecular target: T2, S-layer protein SpaA (SpaASLH/G46A/G109A) (Paenibacillus alvei, UniProt C1JZ07, G46A/G109A); assay: co-crystal structure (no binding detected by ITC)
# T2 construct: SLH domain trimer, amino acids 21–193, Ser-Gly-Ser linker and C-terminal His6-tag
# T2 sequence (C1JZ07 21-193 G46A/G109A): T1 sequence (C1JZ07 21-193)
# [3] = molecular target: T3, S-layer protein SpaA (SpaASLH/G109A) (Paenibacillus alvei, UniProt C1JZ07, G109A); assay: ITC and co-crystal structure; type: binding
# T3 construct: SLH domain trimer, amino acids 21–193, Ser-Gly-Ser linker and C-terminal His6-tag
# [4] = molecular target: T1, S-layer protein SpaA (SpaASLH); assay: ITC and co-crystal structures; type: binding
SMILES,co-crystal structure (no binding detected by ITC) [1],co-crystal structure (no binding detected by ITC) [2],Kd [3],Kd [4]
"CO[C@@H]1O[C@@H]2CO[C@](C)(C(=O)O)O[C@H]2[C@H](O[C@@H]2O[C@H](CO)[C@@H](O)[C@H](O)[C@H]2NC(C)=O)[C@@H]1NC(C)=O [disaccharide, β-D-GlcNAc-(1 → 3)-4,6-Pyr-β-D-ManNAcOMe]","Despite the lack of binding measured by ITC, a co-crystal structure with the internal disaccharide was obtained",,,
"CO[C@@H]1O[C@@H]2CO[C@](C)(C(=O)O)O[C@H]2[C@H](O)[C@@H]1NC(C)=O [monosaccharide (M), 4,6-Pyr-β-D-ManNAcOMe]",,"Despite the lack of binding detected by ITC, ligand is again observed bound in the G2 pocket",226 nM,29 nM

# Source: PMC6081394, “Structural basis of cell wall anchoring by SLH domains in Paenibacillus alvei” (Nature Communications, 2018)
